According to US7598255B2 (Janssen Pharmaceutica NV, priority 2005, dated 2009):
Counter-ions that a name gives are not always drawn.

How the values were obtained:
[1] = target: human recombinant 5-HT6 receptor (Homo sapiens, UniProt P50406); experiment: Affinity for 5-HT6 receptor binding sites, [3H]LSD; conditions: HEK-293 h5-HT6 membranes
[2] = target: 5-HT2B receptor (Homo sapiens, UniProt P41595); experiment: Affinity for 5HT2 receptor binding sites, h5-HT2B, [3H]mesulergine; conditions: CHO h5-HT2B membranes
Sequence of 5-HT2B receptor (P41595 whole entry): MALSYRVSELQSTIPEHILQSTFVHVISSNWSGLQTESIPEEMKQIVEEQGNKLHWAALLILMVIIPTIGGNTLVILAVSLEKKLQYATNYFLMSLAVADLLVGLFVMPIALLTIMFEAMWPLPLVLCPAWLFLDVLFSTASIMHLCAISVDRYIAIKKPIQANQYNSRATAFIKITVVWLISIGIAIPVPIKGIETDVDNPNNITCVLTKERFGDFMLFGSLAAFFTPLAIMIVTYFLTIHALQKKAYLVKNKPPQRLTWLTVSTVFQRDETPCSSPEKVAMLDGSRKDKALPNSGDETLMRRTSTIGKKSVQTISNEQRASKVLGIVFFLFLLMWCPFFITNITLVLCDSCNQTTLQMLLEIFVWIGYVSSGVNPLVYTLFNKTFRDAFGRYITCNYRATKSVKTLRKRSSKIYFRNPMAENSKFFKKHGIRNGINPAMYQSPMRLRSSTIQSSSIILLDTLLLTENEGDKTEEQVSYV

[3] = target: rat 5-HT7a receptor (Rattus norvegicus, UniProt P32305); experiment: Affinity for 5-HT7 receptor binding sites, radioligand binding with [3H]5-CT; conditions: membranes of HEK-293 cells with rat 5-HT7a, 1 nM [3H]5-CT
Sequence of rat 5-HT7a receptor (P32305 whole entry): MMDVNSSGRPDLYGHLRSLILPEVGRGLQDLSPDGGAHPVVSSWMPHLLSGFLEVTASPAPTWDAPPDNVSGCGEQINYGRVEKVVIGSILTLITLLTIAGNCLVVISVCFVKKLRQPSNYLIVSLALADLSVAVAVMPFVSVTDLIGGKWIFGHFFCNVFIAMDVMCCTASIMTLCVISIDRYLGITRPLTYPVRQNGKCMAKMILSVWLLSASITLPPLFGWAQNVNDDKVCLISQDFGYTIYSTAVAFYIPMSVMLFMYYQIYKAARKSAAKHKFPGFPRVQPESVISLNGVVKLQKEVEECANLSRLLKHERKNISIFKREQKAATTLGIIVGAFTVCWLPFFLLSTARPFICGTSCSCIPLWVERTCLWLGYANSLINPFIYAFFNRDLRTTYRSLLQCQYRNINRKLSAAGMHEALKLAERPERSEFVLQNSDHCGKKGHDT
Method in brief: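 Competition binding on membranes from HEK-293 cells stably expressing rat 5-HT7a, 135 μg protein/mL in 50 mM Tris-HCl pH 7.5, 5 mM EDTA. Incubated 60 min at RT with 1 nM [3H]5-CT and increasing compound concentrations; nonspecific binding with 10 μM 5-HT. Filtration and scintillation counting, in triplicate.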

[4] = target: T1, human recombinant 5-HT2C receptor (Homo sapiens, UniProt P28335); experiment: Affinity for 5HT2 receptor binding sites, h5-HT2C, [3H]mesulergine; conditions: CHO h5-HT2C membranes
T1 sequence (P28335 33-458): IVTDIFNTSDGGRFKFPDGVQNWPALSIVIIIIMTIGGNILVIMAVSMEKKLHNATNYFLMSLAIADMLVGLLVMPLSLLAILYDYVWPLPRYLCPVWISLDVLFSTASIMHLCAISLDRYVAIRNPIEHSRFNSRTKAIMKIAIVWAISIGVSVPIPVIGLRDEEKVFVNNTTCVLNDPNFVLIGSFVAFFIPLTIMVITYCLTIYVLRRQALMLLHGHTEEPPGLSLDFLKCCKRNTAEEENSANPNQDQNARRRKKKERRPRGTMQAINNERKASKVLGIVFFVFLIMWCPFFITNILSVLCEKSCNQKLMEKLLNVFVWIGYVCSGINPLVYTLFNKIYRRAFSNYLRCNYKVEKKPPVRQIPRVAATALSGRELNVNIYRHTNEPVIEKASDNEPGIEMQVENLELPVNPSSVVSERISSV
Experimental: (§1) Sigmoidal inhibition curves were generated and fitted by nonlinear regression analysis (GraphPad Prism).
Receptor binding was performed using the human recombinant 5-HT2A (GB: X57830), 5-HT2B (GB: Z36748) and 5-HT2C (GB: M81778) receptors. The affinity of the compounds for the 3 different human 5-HT2 receptor subtypes was evaluated by competitive radioligand binding assays using [^3H]ketanserin (h5-HT2A) or [^3H]mesulergine (h5-HT2B and h5-HT2C). The assays were performed on membranes prepared from NIH3T3 stably transfected with h5-HT2A or CHO stably transfected with h5-HT2B and h5-HT2C.

[5] = target: 5-HT2A receptor (Homo sapiens, UniProt P28223); experiment: Affinity for 5-HT2A receptor binding sites, radioligand binding with [3H]ketanserin; conditions: read-out: Ki 5-HT2A, rat cortex membranes (assay 2) or NIH3T3 h5-HT2A membranes (assay 3), table does not say which
Experimental: as §1
The affinity of the compounds for the rat 5-HT2A receptor was evaluated by competitive radioligand binding assay using [^3H]ketanserine as the radioligand. […] Brain tissue (rat cortex) was homogenized in 20 volumes per wet weight tissue of Tris-HCl buffer (50 mM, pH 7.4). The total membrane fraction was collected by centrifugation and washed by subsequent centrifugation runs (25 min at 25,000 g at 4° C.). Membranes were re-suspended in Tris-HCl buffer (50 mM, pH 7.4) containing 1 nM [^3H]ketanserin. Non-specific binding was estimated in the presence of 10 μM risperidone. The incubation was terminated by rapid filtration over Whatman GF/B filters pre-soaked in 0.1% polyethylenimine, and one washing step with 1 mL ice-cold Tris-HCl buffer, pH 7.4.

Sequence of human recombinant 5-HT6 receptor (P50406 whole entry): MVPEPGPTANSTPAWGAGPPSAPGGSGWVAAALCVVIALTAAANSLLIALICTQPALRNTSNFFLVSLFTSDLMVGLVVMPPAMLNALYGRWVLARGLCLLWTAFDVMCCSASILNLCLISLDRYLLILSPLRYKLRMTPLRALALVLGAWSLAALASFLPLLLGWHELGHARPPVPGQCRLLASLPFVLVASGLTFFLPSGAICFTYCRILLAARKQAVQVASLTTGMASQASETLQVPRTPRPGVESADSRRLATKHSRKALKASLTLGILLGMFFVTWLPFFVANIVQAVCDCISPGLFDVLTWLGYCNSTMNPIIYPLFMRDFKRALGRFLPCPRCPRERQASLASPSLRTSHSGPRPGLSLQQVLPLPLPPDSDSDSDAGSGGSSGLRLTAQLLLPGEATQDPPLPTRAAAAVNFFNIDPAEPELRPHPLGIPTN

CCC(C)c1nc2c(c(-c3ccc(F)cc3)n1)CNCC2 (stereo not shown) [Example 3, 2-sec-Butyl-4-(4-fluoro-phenyl)-5,6,7,8-tetrahydro-pyrido[4,3-d]pyrimidine hydrochloride]
Ki [1]: > 10000 nM
Ki [2]: 2250 nM
Ki [3]: > 10000 nM
Ki [4]: 1020 nM

Cc1ccc(-c2nc(Cc3ccccc3)nc3c2CNCC3)cc1 [Example 8, 2-Benzyl-4-p-tolyl-5,6,7,8-tetrahydro-pyrido[4,3-d]pyrimidine]
Ki [1]: 200 nM
Ki [5]: 20 nM
Ki [2]: 1000 nM
Ki [3]: 1000 nM
Ki [4]: 320 nM

CC(C)c1nc2c(c(-c3ccc(Cl)cc3)n1)CNCC2 [Example 29, 4-(4-Chloro-phenyl)-2-isopropyl-5,6,7,8-tetrahydro-pyrido[4,3-d]pyrimidine]
Ki [1]: > 10000 nM
Ki [5]: 240 nM
Ki [2]: 1600 nM
Ki [3]: > 10000 nM
Ki [4]: 2000 nM

Fc1ccc(-c2nc(C3CCCC3)nc3c2CCNCC3)cc1 [Example 46, 2-Cyclopentyl-4-(4-fluoro-phenyl)-6,7,8,9-tetrahydro-5H-pyrimido[4,5-d]azepine]
Ki [1]: 100 nM
Ki [5]: 14 nM
Ki [2]: 30 nM
Ki [3]: 120 nM
Ki [4]: 200 nM

Cc1ccc(-c2nc(C3CCCC3)nc3c2CCNCC3)cc1 [Example 47, 2-Cyclopentyl-4-p-tolyl-6,7,8,9-tetrahydro-5H-pyrimido[4,5-d]azepine]
Ki [1]: 12 nM
Ki [2]: 1 nM
Ki [3]: 30 nM
Ki [4]: 22 nM

COc1ccc(-c2nc(C3CCCC3)nc3c2CCNCC3)cc1 [Example 48, 2-Cyclopentyl-4-(4-methoxy-phenyl)-6,7,8,9-tetrahydro-5H-pyrimido[4,5-d]azepine]
Ki [1]: 24 nM
Ki [5]: 20 nM
Ki [2]: 3 nM
Ki [3]: 40 nM
Ki [4]: 100 nM

N#Cc1ccc(-c2nc(C3CCCC3)nc3c2CCNCC3)cc1 [Example 49, 4-(2-Cyclopentyl-6,7,8,9-tetrahydro-5H-pyrimido[4,5-d]azepin-4-yl)-benzonitrile]
Ki [1]: 200 nM
Ki [5]: 50 nM
Ki [2]: 25 nM
Ki [3]: 300 nM
Ki [4]: 400 nM

Fc1ccc(-c2nc(Cc3ccccc3)nc3c2CCNCC3)cc1 [Example 54, 2-Benzyl-4-(4-fluoro-phenyl)-6,7,8,9-tetrahydro-5H-pyrimido[4,5-d]azepine]
Ki [1]: 30 nM
Ki [5]: 0.55 nM
Ki [2]: 30 nM
Ki [3]: 5000 nM
Ki [4]: 20 nM

Cc1ccc(-c2nc(Cc3ccccc3)nc3c2CCNCC3)cc1 [Example 55, 2-Benzyl-4-p-tolyl-6,7,8,9-tetrahydro-5H-pyrimido[4,5-d]azepine]
Ki [1]: 8.5 nM
Ki [5]: 0.42 nM
Ki [2]: 2.5 nM
Ki [3]: 35 nM
Ki [4]: 16 nM

FC(F)(F)c1ccc(-c2nc(Cc3ccccc3)nc3c2CCNCC3)cc1 [Example 56, 2-Benzyl-4-(4-trifluoromethyl-phenyl)-6,7,8,9-tetrahydro-5H-pyrimido[4,5-d]azepine]
Ki [1]: 30 nM
Ki [5]: 0.8 nM
Ki [2]: 22 nM
Ki [3]: 180 nM
Ki [4]: 38 nM

CN1CCc2nc(C3CCCC3)nc(-c3ccc(F)cc3)c2CC1 [Example 58, 2-Cyclopentyl-4-(4-fluoro-phenyl)-7-methyl-6,7,8,9-tetrahydro-5H-pyrimido[4,5-d]azepine]
Ki [1]: 100 nM
Ki [5]: 2 nM
Ki [2]: 40 nM
Ki [3]: > 10000 nM
Ki [4]: 30 nM

Cc1ccc(-c2nc(C3CCCC3)nc3c2CCN(C)CC3)cc1 [Example 59, 2-Cyclopentyl-7-methyl-4-p-tolyl-6,7,8,9-tetrahydro-5H-pyrimido[4,5-d]azepine]
Ki [1]: 20 nM
Ki [5]: 1.5 nM
Ki [2]: 7.8 nM
Ki [3]: 100 nM
Ki [4]: 29 nM

COc1ccc(-c2nc(C3CCCC3)nc3c2CCN(C)CC3)cc1 [Example 60, 2-Cyclopentyl-4-(4-methoxy-phenyl)-7-methyl-6,7,8,9-tetrahydro-5H-pyrimido[4,5-d]azepine]
Ki [1]: 60 nM
Ki [5]: 6 nM
Ki [2]: 10 nM
Ki [3]: 400 nM
Ki [4]: 60 nM

Cc1ccc(-c2nc(Cc3ccccc3)nc3c2CCN(C)CC3)cc1 [Example 61, 2-Benzyl-7-methyl-4-p-tolyl-6,7,8,9-tetrahydro-5H-pyrimido[4,5-d]azepine]
Ki [1]: 20 nM
Ki [5]: 1.9 nM
Ki [2]: 15 nM
Ki [3]: 250 nM
Ki [4]: 35 nM

CC(C)c1nc2c(c(-c3ccc(F)cc3)n1)CCCNC2 [Example 65, 4-(4-Fluoro-phenyl)-2-isopropyl-6,7,8,9-tetrahydro-5H-pyrimido[4,5-c]azepine hydrochloride]
Ki [1]: > 10000 nM
Ki [5]: 20 nM
Ki [2]: 300 nM
Ki [3]: > 10000 nM
Ki [4]: 570 nM

Fc1ccc(-c2nc(Cc3ccccc3)nc3c2CNCCC3)cc1 [Example 69, 2-Benzyl-4-(4-fluoro-phenyl)-6,7,8,9-tetrahydro-5H-1,3,6-triaza-benzocycloheptene hydrochloride]
Ki [1]: 7100 nM
Ki [2]: > 10000 nM
Ki [3]: > 10000 nM
Ki [4]: 650 nM

Fc1ccc(-c2nc(Cc3ccccc3)nc3c2CCN(Cc2ccccc2)C3)cc1 [Example 70, 2,7-Dibenzyl-4-(4-fluoro-phenyl)-5,6,7,8-tetrahydro-pyrido[3,4-d]pyrimidine hydrochloride]
Ki [1]: 250 nM
Ki [5]: 117 nM
Ki [2]: > 10000 nM
Ki [3]: > 10000 nM
Ki [4]: 3730 nM

Cc1ccc(-c2nc(Cc3ccccc3)nc3c2CCN(Cc2ccccc2)C3)cc1 [Example 71, 2,7-Dibenzyl-4-p-tolyl-5,6,7,8-tetrahydro-pyrido[3,4-d]pyrimidine]
Ki [1]: 300 nM
Ki [5]: 1030 nM
Ki [2]: 4330 nM
Ki [3]: > 10000 nM
Ki [4]: 3580 nM

Cc1ccc(-c2nc(Cc3ccccc3)nc3c2CCNC3)cc1 [Example 77, 2-Benzyl-4-p-tolyl-5,6,7,8-tetrahydro-pyrido[3,4-d]pyrimidine hydrochloride]
Ki [1]: 400 nM
Ki [5]: 15 nM
Ki [2]: 200 nM
Ki [3]: 22 nM
Ki [4]: 130 nM

CC(C)c1nc2c(c(-c3ccc(F)cc3)n1)CCNC2 [Example 80, 4-(4-Fluoro-phenyl)-2-isopropyl-5,6,7,8-tetrahydro-pyrido[3,4-d]pyrimidine hydrochloride]
Ki [1]: 2800 nM
Ki [5]: 11 nM
Ki [2]: 158 nM
Ki [3]: > 10000 nM
Ki [4]: 940 nM

CC(C)N1CCc2c(nc(Cc3ccccc3)nc2-c2ccc(F)cc2)C1 [Example 83, 2-Benzyl-4-(4-fluoro-phenyl)-7-isopropyl-5,6,7,8-tetrahydro-pyrido[3,4-d]pyrimidine]
Ki [1]: 230 nM
Ki [5]: 30 nM
Ki [2]: 1000 nM
Ki [3]: > 10000 nM
Ki [4]: 300 nM

Cc1ccc(-c2nc(C(C)C)nc3c2CNCC3C)cc1 (stereo not shown) [Example 102, 2-Isopropyl-8-methyl-4-p-tolyl-5,6,7,8-tetrahydro-pyrido[4,3-d]pyrimidine hydrochloride]
Ki [1]: 370 nM
Ki [5]: 20 nM
Ki [2]: 150 nM
Ki [3]: > 10000 nM
Ki [4]: 230 nM

CC(C)c1nc2c(c(-c3ccc(F)cc3)n1)CCC(N1CCCC1)C2 (stereo not shown) [Example 107, 4-(4-Fluoro-phenyl)-2-isopropyl-7-pyrrolidin-1-yl-5,6,7,8-tetrahydro-quinazoline]
Ki [1]: 4000 nM
Ki [5]: 12 nM
Ki [2]: 275 nM
Ki [3]: > 10000 nM
Ki [4]: 500 nM
